Assay [1] has as its system mouse splenic lymphocyte. Nature of the assay: In vitro mouse splenic lymphocyte-proliferation-stimulating effect (3H-TdR uptake). In kind it is cell-based, mouse (BDF1 female). The settings on record: 2 days; for activity at 1 µg/mL / activity at 0.1 µg/mL / activity at 0.01 µg/mL / activity at 0.001 µg/mL: Mus musculus, Splenic lymphocyte, 48 h, read-out: Uptake of 3H-TdR (% of control), splenic lymphocytes; for activity at 0.1 µg/mL: 10^-1 μg/ml; for activity at 0.01 µg/mL: 10^-2 μg/ml; for Uptake of 3H-TdR (% of control), splenic lymphocytes: 2880 min. On the procedure: i) In vitro mouse splenic lymphocyte growth promoting effects of the present compounds
Experiment was performed with BDF1 female mice (6 weeks old) purchased from NIPPON SLC K.K. Spleens were removed from mice, and spleen cells were brayed with slide glasses and hemolized with NH4 Cl. 2×10^6cells/ml of the spleen cells which had been hemolized were suspended in 10% FCS RPMI 1640. The cell suspension (100 μl/well) and a vehicle or sample (10 μl/well) which was prepared so as to have a final level shown in Table 3 were added into wells of a round-bottomed 96 well plate, and cultured under the condition of 5% CO2 at 37° C. for 2 days. 0.5 μCi/well of ^3 H-thymidine (^3 H-TdR) was added. After 6 hours, the cells were harvested, and the amount of ^3 H-TdR uptaken into nucleus was measured by a liquid scintillation counter. The ratio (%) of the uptake of ^3 H-TdR in the sample group to that in the vehicle group was calculated and used as the in vitro mouse splenic lymphocyte-proliferation-stimulating rate.

Assay [2] concerns lethally irradiated mice. Description: Radioprotective effect: life-span prolongation of lethally irradiated mice. The class given is in vivo, mouse (BDF1 female). The settings on record: 0.1 mg/kg i.v. days 0, 4, 8, 9 Gy X-ray, groups of 10. The protocol: Life-span-prolonging effects of the present compounds on lethally irradiated mice.
Experiment was performed with BDF1 female mice (6 weeks old) purchased from NIPPON SLC K.K., which were divided into groups consisting of 10 animals. Mice were irradiated generally with 9 Gy of X-ray with an X-ray generating apparatus, Hitachi, MBR-1520R (radiation day: day 0). Samples at a dose of 0.1 mg/kg were administered into tail vein on days 0, 4 and 8 in order to observe the mortality of the animals for 40 days.
In the table, two experiments are separated by the broken line.

Assay [3] relates to mixed lymphocyte culture reaction (spleen cells of C57BL/6 and BALB/C mice). Nature of the assay: Mixed lymphocyte culture reaction (MLR). In kind it is cell-based, mouse (C57BL/6 stimulator, BALB/C responder). As to conditions: 42 hours; for activity at 1 µg/mL / activity at 0.1 µg/mL: Mus musculus, Lymphocyte, read-out: MLR activating rate (%); for MLR activating rate (%): 2520 min. On the procedure: ii) Mixed lymphocyte culture reaction (MLR) of the compounds of the present invention
Spleen cells were prepared from C57BL/6 mice and treated with 50 μg/ml of mitomycin C for 30 minutes. The treated cells were used as stimulator cells, and the spleen cells of BALB/C mice as responder cells. 2×10^6 cells/ml of the both spleen cells were suspended in 10% FCS RPMI1640 as a culture medium. The above-described cells (50 μl/well) and a sample (10 μl/well) were added into wells of a round-bottomed 96 well plate, and cultured under the condition of 5% CO2 at 37° C. for 42 hours. 0.5 μCi/well of ^3 H-thymidine (^3 H-TdR) was added. After 8 hours, the cells were harvested, and the amount of uptaken ^3 H-TdR was measured by a liquid scintillation counter to calculate the ratio (%) of the uptake of ^3 H-TdR in the sample group to that in the vehicle group as the MLR activating rate.

The test system of assay [4] is P388 mouse leukemia cells. Description: Life-span-prolonging (anti-tumor) effect on mice subcutaneously inoculated with P388 mouse leukemia cells. The settings on record: for Survival days ave. ± s. d.: all marked ** (p < 0.01); for response vs control in vivo at 0.1 mg/kg: Mus musculus, P388, iv, read-out: T/C (%). In kind it is in vivo, mouse (CDF1 female). The protocol:
i) Anti-tumor effect of the compound of the present invention on mice subcutaneously inoculated with P388 mouse leukemia cells.
Experiment was performed with CDF1 female mice (6 weeks) purchased from NIPPON SLC K.K., which were divided into groups consisting of 5 animals. […]. In this connection, lentinan and picibanil were administered intravenously on days 1, 3, 5, 7 and 9 after implantation, and sizofilan was administered subcutaneously on days 1 through 9. Statistical analysis was performed according to the Mann-Whiteney test.

For assay [5], the system named is mouse bone marrow cells. Nature of the assay: In vitro mouse bone marrow cell-proliferation-promoting effect (3H-TdR uptake). The class given is cell-based, mouse (BDF1 female). As to conditions: 4 days; for activity at 0.1 µg/mL / activity at 0.01 µg/mL: Mus musculus, Bone marrow cell, 96 h, read-out: Uptake of 3H-TdR (% of control), bone marrow cells; for Uptake of 3H-TdR (% of control), bone marrow cells: 5760 min. The protocol:
In vitro mouse bone marrow cell-proliferation-promoting effect of the present compound
Experiment was performed with BDF1 female mice (6 weeks old) purchased from NIPPON SLC K.K. Bone marrow cells were removed from the femoral bone of mice by the conventional manner, floated on 10% FCS RPMI 1640, layered over Lympholite M, and centrifuged to give a monocyte fraction. 1×10^6 cells/ml of the monocyte fraction was suspended in 10% FCS RPMI 1640. The cell suspension (100 μl/well) and a vehicle or sample (10 μl/well) which was prepared so as to have a final level shown in Table 2 were added into a wells of round-bottomed 96 well plate, and cultured under the condition of 5% CO2 at 37° C. for 4 days. 0.5 μCi/well of ^3 H-thymidine (^3 H-TdR) was added. After 6 hours, the cells were harvested, and the amount of ^3 H-TdR uptaken into nucleus was measured by a liquid scintillation counter. The ratio of the uptake of ^3 H-TdR in the sample group to that in the vehicle group was calculated and used as the activation rate for promoting in vitro mouse bone marrow cell growth.

Assay [6] deals with B16 mouse melanoma cells. Description: Tumor growth inhibition in mice subcutaneously inoculated with B16 mouse melanoma cells. The class given is in vivo, mouse (BDF1 female). As to conditions: 0.1 mg/kg i.v. days 1, 5, 9; maximum during 20 days. On the procedure:
ii) Anti-tumor effect of the compound according to the present invention on mice subcutaneously inoculated with B16 mouse melanoma cells.
Experiment was performed with BDF1 female mice (6 weeks) purchased from NIPPON SLC K.K., which were divided into groups consisting of 6 animals. […]. The subcutaneous tumor volumes [(length×width×height)/2] were measured on days 8, 12, 16 and 20 after implantation to determine the tumor growth inhibiting rate (TGIR) of each sample. TGIR was calculated from the following formula: […]
wherein C: tumor volume in the control group, and
T: tumor volume in the sample adminitered groups.
In this connection, Compounds 1-6 and 7-9 were tested in the same time, respectively.

[7] abbreviates: 0.1 mg/kg i.v. on days 1, 5 and 9.
Where [8] appears, read: 0.1 mg/kg i.v. on days 1, 5 and 9, survival vs vehicle.

For `CCCCCCCCCCCCCCCCCCCCCC[C@@H](O)C(=O)N[C@@H](CO[C@H]1O[C@H](CO)[C@H](O)[C@H](O[C@H]2O[C@H](CO)[C@H](O)[C@H](O)[C@H]2NC(C)=O)[C@H]1O[C@H]1O[C@H](CO)[C@@H](O)[C@H](O)[C@H]1O)[C@H](O)[C@H](O)CCCCCCCCCCCC` [Compound 1, O-(N-acetyl-2-amino-2-deoxy-α-D-galactopyranosyl)-(1→3)-O-[α-D-glucopyranosyl-(1→2)]-O-α-D-galactopyranosyl-(1→1)-(2S,3S,4R)-2-amino-N-[(R)-2-hydroxytetracosanoyl]-1,3,4-hexadecanetriol], the activity at 1 µg/mL in assay [1] (10^0 μg/ml) was 843%; in assay [3] (1 × 10^0 μg/ml), 222%. For the same compound, the activity at 0.1 µg/mL in assay [1] is 738%; in assay [3] (1 × 10^-1 μg/ml) it was 142%; in assay [5] (10^-1 μg/ml) it was 211%. In addition, the activity at 0.01 µg/mL in assay [1] amounted to 332%; in assay [5] (10^-2 μg/ml), 133%. Also, the activity at 0.001 µg/mL in assay [1] (10^-3 μg/ml) amounted to 184%. Moreover, the “Number of surviving mice” value in assay [2] (day 10) was 10 mice; in assay [2] (day 15), 9 mice; in assay [2] (day 20), 7 mice; in assay [2] (day 25) it was 6 mice; in assay [2] (day 30), 6 mice; in assay [2] (day 35), 6 mice. Moreover, the “Number of surviving mice” value in assay [2] (day 40) was 6 mice. In addition, the “Survival days ave. ± s. d.” value in assay [4] (setting [7]) turned out to be 15.3 ± 0.8 days. In addition, the response vs control in vivo at 0.1 mg/kg in assay [4] (setting [8]) stood at 120%.
With `CCCCCCCCCCCCCCCCCCCCCC[C@@H](O)C(=O)N[C@@H](CO[C@H]1O[C@H](CO)[C@H](O)[C@H](O[C@@H]2O[C@@H]([C@H](O)CO)[C@H](O)[C@H]2O)[C@H]1O)[C@H](O)[C@H](O)CCCCCCCCCCCCC` [Compound 14, O-β-D-galactofuranosyl-(1→3)-O-α-D-galactopyranosyl-(1→1)-(2S,3S,4R)-2-amino-N-[(R)-2-hydroxytetracosanoyl]-1,3,4-heptadecanetriol], the results for the activity at 1 µg/mL in assay [1] (10^0 μg/ml) and in assay [3] (1 × 10^0 μg/ml) were 640% and 261%, respectively. The activity at 0.001 µg/mL in assay [1] (10^-3 μg/ml) turned out to be 252%. The activity at 0.1 µg/mL amounted to 232% in assay [3] (1 × 10^-1 μg/ml) and 838% in assay [5] (10^-1 μg/ml). For the same compound, the “Survival days ave. ± s. d.” value in assay [4] (setting [7]) is on record as 13.8 ± 0.4 days. Besides, the response vs control in vivo at 0.1 mg/kg in assay [4] (setting [8]) was 108%. In addition, the activity at 0.01 µg/mL in assay [5] (10^-2 μg/ml) amounted to 659%.
For `CCCCCCCCCCCCCCCCCCCCCC[C@@H](O)C(=O)N[C@@H](CO[C@H]1O[C@H](CO)[C@H](O)[C@H](O[C@H]2O[C@H](CO)[C@H](O)[C@H](O)[C@H]2NC(C)=O)[C@H]1O[C@H]1O[C@H](CO)[C@@H](O)[C@H](O)[C@H]1O)[C@H](O)[C@H](O)CCCCCCCCCCCCCC` [Compound 8, O-(N-acetyl-2-amino-2-deoxy-α-D-galactopyranosyl)-(1→3)-O-[α-D-glucopyranosyl-(1→2)]-O-α-D-galactopyranosyl-(1→1)-(2S,3S,4R)-2-amino-N-[(R)-2-hydroxytetracosanoyl]-1,3,4-octadecanetriol], the “Uptake of 3H-TdR (% of control), splenic lymphocytes” value in assay [1] (10^0 μg/ml) is 997 % of control; in assay [1] (10^-3 μg/ml), 609 % of control. For the same compound, the “Maximum tumor growth inhibiting rate, TGIR (%)” value in assay [6] is listed as 78.4%. Further, the “MLR activating rate (%)” value was found to be 286% in assay [3] (1 × 10^0 μg/ml) and 232% in assay [3] (1 × 10^-1 μg/ml). For the same compound, in assay [4] (setting [7]), the “Survival days ave. ± s. d.” value is on record as 16.0 ± 0.7 days. The “T/C (%)” value in assay [4] (setting [8]) was 125%. Besides, the “Uptake of 3H-TdR (% of control), bone marrow cells” value is on record as 240 % of control in assay [5] (10^-1 μg/ml) and 167 % of control in assay [5] (10^-2 μg/ml).
For `CCCCCCCCCCCCCCCCCCCCCCCCCC(=O)N[C@@H](CO[C@H]1O[C@H](CO)[C@@H](O[C@H]2O[C@H](CO)[C@@H](O)[C@H](O)[C@H]2O)[C@H](O)[C@H]1O)[C@H](O)[C@H](O)CCCCCCCCCCCCCC` [Compound 35, O-α-D-glucopyranosyl-(1→4)-O-α-D-glucopyranosyl-(1→1)-(2S,3S,4R)-2-amino-N-hexacosanoyl-1,3,4-octadecanetriol], the activity at 1 µg/mL in assay [1] (10^0 μg/ml) worked out at 431%; in assay [3] (1 × 10^0 μg/ml), 165%. The activity at 0.1 µg/mL in assay [1] came to 874%; in assay [3] (1 × 10^-1 μg/ml) it was 133%; in assay [5] (10^-1 μg/ml), 223%. Further, the activity at 0.01 µg/mL in assay [1] stood at 803%; in assay [5] (10^-2 μg/ml) it was 148%. The activity at 0.001 µg/mL in assay [1] (10^-3 μg/ml) worked out at 538%. The “Survival days ave. ± s. d.” value in assay [4] (setting [7]) was found to be 14.8 ± 1.3 days. Moreover, in assay [4] (setting [8]), the response vs control in vivo at 0.1 mg/kg came out at 116%. The “life-span-prolonging effect (anti-tumor effect), in words” value in assay [4] (P388 s.c. system) is “intensive anti-tumor effects almost in the same level as that of Compound b”.

The record behind these values is US5780441A, “Sphingoglycolipid compounds and therapeutic uses thereof” (Kirin Beer Kabushiki Kaisha, priority 1993, dated 1998).
